Results published in ChEMBL document CHEMBL1201862, “PubChem BioAssay data set” (2004).
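Values below derive from 48-hour exposures of cells grown in 96-well plates, with endpoints linearly interpolated between the two concentrations bracketing the appropriate inhibition level. GI50: concentration for 50% inhibition of growth.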 The source made the active and inactive calls. Rule as the data show it: active = GI50 up to about 1.1 µM and inactive = higher.

Legend:
Assay in all cases: NCI anticancer screen, dose series, 48 h
Malme-3M = tested on: Malme-3M
SF-295 = tested on: SF-295
OVCAR-5 = tested on: OVCAR-5
TK-10 = tested on: TK-10
SK-MEL-28 = tested on: SK-MEL-28
MDA-MB-435 = tested on: MDA-MB-435
M14 = tested on: M14
SK-OV-3 = tested on: SK-OV-3
RPMI-8226 = tested on: RPMI-8226
OVCAR-8 = tested on: OVCAR-8
ACHN = tested on: ACHN
CAKI-1 = tested on: CAKI-1
IGROV-1 = tested on: IGROV-1
SF-268 = tested on: SF-268
RXF 393 = tested on: RXF 393
U-251 = tested on: U-251
HCT-15 = tested on: HCT-15
Hs-578T = tested on: Hs-578T
HOP-62 = tested on: HOP-62
CCRF-CEM = tested on: CCRF-CEM

| SMILES | GI50 (Malme-3M) | GI50 (SF-295) | GI50 (OVCAR-5) | GI50 (TK-10) | GI50 (SK-MEL-28) | GI50 (MDA-MB-435) | GI50 (M14) | GI50 (SK-OV-3) | GI50 (RPMI-8226) | GI50 (OVCAR-8) | GI50 (ACHN) | GI50 (CAKI-1) | GI50 (IGROV-1) | GI50 (SF-268) | GI50 (RXF 393) | GI50 (U-251) | GI50 (HCT-15) | GI50 (Hs-578T) | GI50 (HOP-62) | GI50 (CCRF-CEM) |
| --- | --- | --- | --- | --- | --- | --- | --- | --- | --- | --- | --- | --- | --- | --- | --- | --- | --- | --- | --- | --- |
| C1CCNCC1.S=C(S)N1CCCCC1 | 19.1 µM (inactive) | 99.8 µM (inactive) | 213 µM (inactive) | 135 µM (inactive) | 48.6 µM (inactive) | 199 µM (inactive) | 25.4 µM (inactive) | 92.5 µM (inactive) | 3.75 µM (inactive) | 61.1 µM (inactive) | 87.7 µM (inactive) | 33.4 µM (inactive) | 5.96 µM (inactive) | 75.7 µM (inactive) | 190 µM (inactive) | 1.46 µM (inactive) | 88.9 µM | 163 µM (inactive) | 129 µM (inactive) |  |
| CCOc1cc(NC(C)=O)ccc1C(=O)NN1C(=O)/C(=C/c2ccco2)N=C1c1ccccc1 | > 100 µM (inactive) | > 100 µM (inactive) | > 100 µM (inactive) |  | > 100 µM (inactive) | > 100 µM (inactive) | > 100 µM (inactive) | > 100 µM (inactive) | 15.1 µM (inactive) | 41.2 µM (inactive) | > 100 µM (inactive) | > 100 µM (inactive) | > 100 µM (inactive) | > 100 µM (inactive) | > 100 µM (inactive) |  | > 100 µM | 42.8 µM (inactive) | > 100 µM (inactive) | > 100 µM (inactive) |
| CCc1nc2ccc(/N=N/N(C)C)cc2[nH]1 | > 100 µM (inactive) |  | > 100 µM (inactive) | > 100 µM (inactive) | > 100 µM (inactive) | > 100 µM (inactive) | > 100 µM (inactive) |  | > 100 µM (inactive) | > 100 µM (inactive) | > 100 µM (inactive) | > 100 µM (inactive) | > 100 µM (inactive) | > 100 µM (inactive) | 45.3 µM (inactive) | > 100 µM (inactive) | > 100 µM | > 100 µM (inactive) | > 100 µM (inactive) | > 100 µM (inactive) |
| Cc1cc(=O)nc(S(=O)(=O)NC(=S)Nc2ccc(Br)cc2)[nH]1 | > 100 µM (inactive) | > 100 µM (inactive) | > 100 µM (inactive) | > 100 µM (inactive) | > 100 µM (inactive) | > 100 µM (inactive) | > 100 µM (inactive) | > 100 µM (inactive) | 33.4 µM (inactive) | > 100 µM (inactive) | > 100 µM (inactive) | 65.6 µM (inactive) | 73.1 µM (inactive) | > 100 µM (inactive) | 20.5 µM (inactive) | > 100 µM (inactive) | 75.9 µM | > 100 µM (inactive) | > 100 µM (inactive) |  |
| CC(C)CCCC(C)[C@H]1CC[C@H]2N/C(=N/Cc3ccccc3)CCC[C@]12C (stereo partly drawn) | 1.97 µM (inactive) | 2.03 µM (inactive) |  | 2.08 µM (inactive) | 1.47 µM (inactive) | 1.64 µM (inactive) | 2.32 µM (inactive) | 5.31 µM (inactive) | 1.59 µM (inactive) | 1.67 µM (inactive) |  | 2.25 µM (inactive) | 1.74 µM (inactive) | 2.2 µM (inactive) | 1.53 µM (inactive) | 1.78 µM (inactive) | 1.67 µM | 3.37 µM (inactive) | 2.46 µM (inactive) | 2.13 µM (inactive) |
| CCOP(=O)(Nc1ccc2oc(=O)c3ccccc3c2c1)OCC | > 100 µM (inactive) | > 100 µM (inactive) | 80.4 µM (inactive) | 49.1 µM (inactive) | > 100 µM (inactive) | > 100 µM (inactive) | > 100 µM (inactive) |  | 21.2 µM (inactive) | > 100 µM (inactive) | 33.2 µM (inactive) | 26.2 µM (inactive) | 48 µM (inactive) | 56.6 µM (inactive) | 91.2 µM (inactive) | 75.2 µM (inactive) | 79.8 µM | 19.8 µM (inactive) | 62.1 µM (inactive) | 51.3 µM (inactive) |
| OC1CSc2nc3ccccc3n2C1 (stereo not drawn) | > 100 µM (inactive) | > 100 µM (inactive) | > 100 µM (inactive) | > 100 µM (inactive) |  | > 100 µM (inactive) | > 100 µM (inactive) | > 100 µM (inactive) | > 100 µM (inactive) | > 100 µM (inactive) | > 100 µM (inactive) | > 100 µM (inactive) | > 100 µM (inactive) | > 100 µM (inactive) | > 100 µM (inactive) | > 100 µM (inactive) | > 100 µM | 23.8 µM (inactive) |  | > 100 µM (inactive) |
| O=C1C2CCCC2N1Cc1ccccc1 (stereo not drawn) |  | > 100 µM (inactive) | > 100 µM (inactive) | > 100 µM (inactive) |  | > 100 µM (inactive) | 13.6 µM (inactive) | > 100 µM (inactive) | > 100 µM (inactive) | > 100 µM (inactive) | > 100 µM (inactive) | > 100 µM (inactive) | > 100 µM (inactive) | > 100 µM (inactive) | > 100 µM (inactive) |  | > 100 µM | > 100 µM (inactive) | > 100 µM (inactive) | > 100 µM (inactive) |
| CC(C)CCc1c(Cl)nc(Cl)nc1Cl | 6.12 µM (inactive) | 18.1 µM (inactive) | 28.1 µM (inactive) | 21.1 µM (inactive) | 9.04 µM (inactive) | 6.18 µM (inactive) | 3.61 µM (inactive) | 17 µM (inactive) | 30.7 µM (inactive) | > 10 µM (inactive) | 21.2 µM (inactive) |  | 18 µM (inactive) | 17.6 µM (inactive) | 3.89 µM (inactive) | 11.8 µM (inactive) | 3.47 µM | 17.9 µM (inactive) | 16.4 µM (inactive) | 0.33 µM (active) |
| COc1ccc(Oc2nc3c(N)cc(C(F)(F)F)cc3nc2-c2ccccc2)cc1 |  | 18.5 µM (inactive) |  | 38.5 µM (inactive) | 85.9 µM (inactive) | 46.3 µM (inactive) | 13.3 µM (inactive) | 13.3 µM (inactive) | 63 µM (inactive) | 26.9 µM (inactive) | 28.2 µM (inactive) | 21.8 µM (inactive) | 13.6 µM (inactive) | 20.6 µM (inactive) | 11.6 µM (inactive) | 35.6 µM (inactive) | 31.6 µM | 16.3 µM (inactive) | 22.8 µM (inactive) | 38.4 µM (inactive) |
| CC(C)(C)OC(=O)N(O)[C@@H]1CC[C@H](n2cnc3c(N)ncnc32)C1 | > 100 µM (inactive) | > 100 µM (inactive) | > 100 µM (inactive) | > 100 µM (inactive) | > 100 µM (inactive) | > 100 µM (inactive) | > 100 µM (inactive) | > 100 µM (inactive) | > 100 µM (inactive) | > 100 µM (inactive) | > 100 µM (inactive) |  | 54.5 µM (inactive) | > 100 µM (inactive) | > 100 µM (inactive) | > 100 µM (inactive) | > 100 µM | > 100 µM (inactive) | > 100 µM (inactive) | > 100 µM (inactive) |
| Cc1nc2c(n1CCCl)C(=O)c1ccccc1C2=O | 5.82 µM (inactive) | 21.4 µM (inactive) | 19 µM (inactive) | 26.7 µM (inactive) | 42.8 µM (inactive) | 15.3 µM (inactive) | 4.68 µM (inactive) | 5.22 µM (inactive) | 58.6 µM (inactive) | 17.9 µM (inactive) | 28.9 µM (inactive) |  | 11.6 µM (inactive) | 22 µM (inactive) | 19.5 µM (inactive) | 12.6 µM (inactive) | 7.87 µM | 20.1 µM (inactive) | 19.5 µM (inactive) | 22.6 µM (inactive) |
| c1ccc(CNCCN2CCNCC2)nc1 | > 100 µM (inactive) | > 100 µM (inactive) | > 100 µM (inactive) | > 100 µM (inactive) | > 100 µM (inactive) | > 100 µM (inactive) | > 100 µM (inactive) | > 100 µM (inactive) | > 100 µM (inactive) | > 100 µM (inactive) | > 100 µM (inactive) | > 100 µM (inactive) | > 100 µM (inactive) | > 100 µM (inactive) | > 100 µM (inactive) | > 100 µM (inactive) | > 100 µM | > 100 µM (inactive) | > 100 µM (inactive) |  |
| COc1ccc(C(Nc2ccccn2)c2cc(C(C)(C)C)cc(C(C)(C)C)c2O)cc1 (stereo not drawn) | 10.4 µM (inactive) | 12.4 µM (inactive) | 42 µM (inactive) | 49.7 µM (inactive) | 50.4 µM (inactive) | 17.4 µM (inactive) | 16.4 µM (inactive) | 19.5 µM (inactive) | 23.1 µM (inactive) | 43.4 µM (inactive) | 30.8 µM (inactive) | 39.4 µM (inactive) | 24 µM (inactive) | 5.65 µM (inactive) | 7.74 µM (inactive) | 19.8 µM (inactive) | 22.3 µM | 6.07 µM (inactive) | 16.9 µM (inactive) |  |
| CC(=O)N(O)c1ccc(-c2nc3ccccc3s2)cc1 | 31.3 µM (inactive) | 45.2 µM (inactive) | > 100 µM (inactive) | 80.7 µM (inactive) | 80.7 µM (inactive) | 86.9 µM (inactive) | 85.7 µM (inactive) |  | 15 µM (inactive) | 40.9 µM (inactive) | 47.5 µM (inactive) | 95.1 µM (inactive) | 32.9 µM (inactive) | 74.6 µM (inactive) | 61.8 µM (inactive) | 87.9 µM (inactive) | > 100 µM | 32.7 µM (inactive) | 42.1 µM (inactive) | > 100 µM (inactive) |
